Results taken from patent US11319324B2, “Pyrazolo-pyrrolo-pyrimidine-dione derivatives as P2X3 inhibitors” (Bayer Aktiengesellschaft, priority 2017, dated 2022).

Experiments:
Type in all cases: cell-based
human P2X2/3 receptors = target: T1, human P2X2/3 receptors (Homo sapiens, UniProt P56373+Q9UBL9); assay: Intracellular calcium measurement, antagonist activity at human P2X2/3 receptors (hP2X23 1321N1), Fluo8; conditions: for IC50: column 4); 1321N1 cells, human P2X2/3, Fluo8, agonist ATP at EC50; read-out: 4) hP2X2/3 IC50 [nM] (1321N1); for hP2X23/hP2X3* Selectivity (1321N1): ratio of column 4) hP2X2/3 to column 3) hP2X3, 1321N1
T1 construct: expressed in transfected cells; host or cells: human astrocytoma 1321N1 (1312N1 [sic])
T1 sequence (P56373 1-397): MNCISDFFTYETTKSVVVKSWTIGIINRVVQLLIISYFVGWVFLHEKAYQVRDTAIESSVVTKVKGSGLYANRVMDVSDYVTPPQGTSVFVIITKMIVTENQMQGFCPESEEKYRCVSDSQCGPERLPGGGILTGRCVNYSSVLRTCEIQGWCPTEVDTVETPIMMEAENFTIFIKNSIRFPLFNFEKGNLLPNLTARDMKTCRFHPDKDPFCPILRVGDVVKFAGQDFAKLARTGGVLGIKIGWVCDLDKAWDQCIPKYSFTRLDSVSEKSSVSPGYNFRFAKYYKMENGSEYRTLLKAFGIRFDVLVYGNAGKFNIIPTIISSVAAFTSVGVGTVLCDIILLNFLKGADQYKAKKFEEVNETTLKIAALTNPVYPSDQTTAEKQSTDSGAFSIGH
T1 sequence (Q9UBL9 1-471): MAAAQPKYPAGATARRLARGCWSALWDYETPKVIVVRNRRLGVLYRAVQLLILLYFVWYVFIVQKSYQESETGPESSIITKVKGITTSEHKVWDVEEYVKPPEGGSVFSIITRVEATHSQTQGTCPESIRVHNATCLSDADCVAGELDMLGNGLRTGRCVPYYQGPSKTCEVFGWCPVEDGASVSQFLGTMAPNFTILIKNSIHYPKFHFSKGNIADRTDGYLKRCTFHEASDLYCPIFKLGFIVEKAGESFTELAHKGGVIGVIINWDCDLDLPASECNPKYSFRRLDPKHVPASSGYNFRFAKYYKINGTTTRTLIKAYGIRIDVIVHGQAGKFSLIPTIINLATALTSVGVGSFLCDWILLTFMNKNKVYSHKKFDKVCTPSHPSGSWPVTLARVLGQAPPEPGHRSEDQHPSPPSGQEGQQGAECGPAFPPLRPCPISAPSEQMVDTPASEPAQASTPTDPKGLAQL
How it was run: (§1)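 Inhibition of ATP-triggered Ca2+ transients is measured in 1321N1 cells expressing P2X3 homotrimers or P2X2/3 heterotrimers.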

human P2X3 receptor [1] = target: T2, human P2X3 receptor (Homo sapiens, UniProt P56373); assay: Intracellular calcium measurement to assess antagonist activity at human P2X3 receptors (hP2X3 CHO), photina luminescence; parameters: expressed in transfected cells; host or cells: Chinese hamster ovary (CHO) cells; conditions: column 2), CHO cells, agonist α,β-methylene-ATP at EC50
T2 sequence (P56373 1-397): T1 sequence (P56373 1-397)
How it was run: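 CHO cells stably expressing human P2X3 and mitochondrial photina, plated the day before at 30 °C, then loaded 3 h at 37 °C in 2 mM Ca-tyrode buffer with 5 μg/ml coelenterazine. Agonist-evoked calcium luminescence read immediately; inhibition seen as signal decrease.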

human P2X3 receptor [2] = target: T2, human P2X3 receptor; assay: Intracellular calcium measurement, antagonist activity at human P2X3 receptors (hP2X3 1321N1), Fluo8; parameters: expressed in transfected cells; host or cells: human astrocytoma 1321N1 (1312N1 [sic]); conditions: column 3); 1321N1 cells, human P2X3, Fluo8, agonist ATP at EC50
How it was run: as §1

Structure (SMILES)	IC50 (human P2X2/3 receptors) [nM]	hP2X23/hP2X3* Selectivity (1321N1) (human P2X2/3 receptors)	IC50 (human P2X3 receptor [1]) [nM]	IC50 (human P2X3 receptor [2]) [nM]
CCc1cc2n(CC(=O)Nc3ccc(Cl)cn3)c3c(c(=O)n2n1)CN(CC1CCCO1)C3=O (stereo not shown) [Example 62]	5150	21	55	240
O=C(Cn1c2c(c(=O)n3nc(C4CC4)cc13)CN(CCN1CCOCC1)C2=O)Nc1ccc(F)cn1 [Example 104]	> 32000	>267	69	120
CCc1cc2n(CC(=O)Nc3ccc(F)cn3)c3c(c(=O)n2n1)CN(C[C@H]1CN(C(=O)OC(C)(C)C)CCO1)C3=O [Example 86, tert-butyl(2S)-2-{[2-ethyl-4-{2-[(5-fluoropyridin-2-yl)amino]-2-oxoethyl}-5,8-dioxo-5,8-dihydro-4H-pyrazolo[1,5-a]pyrrolo[3,4-d]pyrimidin-6(7H)-yl]methyl}morpholine-4-carboxylate]	2350	17	70	140
CCc1cc2n(CC(=O)Nc3ccc(F)cn3)c3c(c(=O)n2n1)CN(CC1CCN(C(=O)OC(C)(C)C)CC1)C3=O [Example 89]	6550	49	64	135
COC[C@H](C)N1Cc2c(n(CC(=O)Nc3ccc(F)cn3)c3cc(C(=O)N4CCCCC4)nn3c2=O)C1=O [Example 198]	9300	581	35	16
CCc1cc2n(CC(=O)Nc3ccc(F)cn3)c3c(c(=O)n2n1)CN(C[C@H]1CN(CCC(F)(F)F)CCO1)C3=O [Example 259]	1170	16	33	71
CCc1cc2n(CC(=O)Nc3ccc(C)cn3)c3c(c(=O)n2n1)CN(CC1CCOC1)C3=O (stereo not shown) [Example 61]	> 23000	>12	695	1930
CCc1cc2n(CC(=O)Nc3ccc(F)cn3)c3c(c(=O)n2n1)CN(CC1CCNC1)C3=O.Cl (stereo not shown) [Example 238]	> 32000	>49	550	650
CCc1cc2n(CC(=O)Nc3ccc(F)cn3)c3c(c(=O)n2n1)CN(CCNC(=O)OC(C)(C)C)C3=O [Example 68, tert-butyl {2-[2-ethyl-4-{2-[(5-fluoropyridin-2-yl)amino]-2-oxoethyl}-5,8-dioxo-5,8-dihydro-4H-pyrazolo[1,5-a]pyrrolo[3,4-d]pyrimidin-6(7H)-yl]ethyl}carbamate]	1660	160	17	10
CCc1cc2n(CC(=O)Nc3ccc(F)cn3)c3c(c(=O)n2n1)CN(CC1CCCN1)C3=O.Cl (stereo not shown) [Example 239]	> 32000	>49	220	650
CCc1cc2n(CC(=O)Nc3ccc(F)cn3)c3c(c(=O)n2n1)CN(CC1CCOCC1)C3=O [Example 83]	> 32000	>48	370	665
CCc1cc2n(CC(=O)Nc3ccc(Cl)cn3)c3c(c(=O)n2n1)CN(CC1CCOC1)C3=O (stereo not shown) [Example 60]	> 19800	>41	105	480
CCc1cc2n(CC(=O)Nc3ccc(F)cn3)c3c(c(=O)n2n1)CN(Cc1ccccn1)C3=O [Example 108]	3200	200	18	16

Now from value to molecule:

IC50 (human P2X2/3 receptors) [nM]	hP2X23/hP2X3* Selectivity (1321N1) (human P2X2/3 receptors)	IC50 (human P2X3 receptor [1]) [nM]	IC50 (human P2X3 receptor [2]) [nM]	Structure (SMILES)
3200	368	18	9	COC[C@H](C)N1Cc2c(n(CC(=O)Nc3ccc(F)cn3)c3cc(C(=O)N4CCC4)nn3c2=O)C1=O [Example 194]
10500	51	200	207	CCc1cc2n(CC(=O)Nc3ccc(C)cn3)c3c(c(=O)n2n1)CN(C(C)C)C3=O [Example 65]
1460	328	9	4	COC[C@H](C)N1Cc2c(n(CC(=O)Nc3ccc(F)cn3)c3cc(-c4ccncc4C)nn3c2=O)C1=O [Example 152, N-(5-fluoropyridin-2-yl)-2-{6-[(2S)-1-methoxypropan-2-yl]-2-(3-methylpyridin-4-yl)-5,8-dioxo-5,6,7,8-tetrahydro-4H-pyrazolo[1,5-a]pyrrolo[3,4-d]pyrimidin-4-yl}acetamide]
2350	408	10	6	COC[C@H](C)N1Cc2c(n(CC(=O)Nc3ccc(F)cn3)c3cc(-c4ccnc(C)c4)nn3c2=O)C1=O [Example 153]
> 32000	>152	173	210	CC(O)c1cc2n(CC(=O)Nc3ccc(F)cn3)c3c(c(=O)n2n1)CN(C(C)C)C3=O (racemic) [Example 275, N-(5-fluoropyridin-2-yl)-2-{2-[(±)-1-hydroxyethyl]-5,8-dioxo-6-(propan-2-yl)-5,6,7,8-tetrahydro-4H-pyrazolo[1,5-a]pyrrolo[3,4-d]pyrimidin-4-yl}acetamide]
2600	211	8	12	COCCN1Cc2c(n(CC(=O)Nc3ccc(F)cn3)c3cc(CC(C)C)nn3c2=O)C1=O [Example 98]
5900	361	10	16	COC[C@H](C)N1Cc2c(n(CC(=O)Nc3ccc(F)cn3)c3cc(C(=O)NCC4CC4)nn3c2=O)C1=O [Example 190]
1700	447	8	4	Cc1ccc(-c2cc3n(CC(=O)Nc4ccc(F)cn4)c4c(c(=O)n3n2)CN(C(C)C)C4=O)nc1 [Example 69]
4700	191	35	25	CC(=O)N1CCC(c2cc3n(CC(=O)Nc4ccc(F)cn4)c4c(c(=O)n3n2)CN(C(C)C)C4=O)CC1 [Example 263, 2-[2-(1-acetylpiperidin-4-yl)-5,8-dioxo-6-(propan-2-yl)-5,6,7,8-tetrahydro-4H-pyrazolo[1,5-a]pyrrolo[3,4-d]pyrimidin-4-yl]-N-(5-fluoropyridin-2-yl)acetamide]
9950	54	73	185	CC(C)N1Cc2c(n(CC(=O)Nc3ccc(F)cn3)c3cc(C4CC4)nn3c2=O)C1=O [Example 56]
> 22500	>278	114	81	COC[C@H](C)N1Cc2c(n(CC(=O)Nc3ccc(F)cn3)c3cc(Cl)nn3c2=O)C1=O [Example 102]
1800	581	13	3	Cc1cc(-c2cc3n(CC(=O)Nc4ccc(F)cn4)c4c(c(=O)n3n2)CN(C(C)C)C4=O)c(C)cn1 [Example 159]
9350	201	57	47	CC(C)N1Cc2c(n(CC(=O)Nc3ccc(F)cn3)c3cc(NC(=O)C4CCOCC4)nn3c2=O)C1=O [Example 284]
4400	50	29	89	CC(C)N1Cc2c(n(CC(=O)Nc3ccc(F)cn3)c3cc(Br)nn3c2=O)C1=O [Example 75, 2-[2-bromo-5,8-dioxo-6-(propan-2-yl)-5,6,7,8-tetrahydro-4H-pyrazolo[1,5-a]pyrrolo[3,4-d]pyrimidin-4-yl]-N-(5-fluoropyridin-2-yl)acetamide]
1900	58	27	33	CC(C)N1Cc2c(n(CC(=O)Nc3ccc(F)cn3)c3cc(NC(=O)OC(C)(C)C)nn3c2=O)C1=O [Example 91]
